The test system of this assay is B16-F10 cells lung metastasis. Briefly: Murine lung metastasis assay, B16-F10 cells injected through a tail vein. The conditions noted are these: no pretreatment of cells; 50 mg/kg i.p. daily for 5 days; day 21. The class given is in vivo, mice. The source says: Mice were housed four in a cage and received food and water ad libitum. All mice were used at approximately 7-10 weeks of age and given at least one week break after arrival. All experimental protocols were approved by the Institutional Animal Care and Use Committee. Procedures for murine lung metastasis assays reported previously were followed with minor modification [Bezault, J., Bhimani, R., Wiprovnick, J., and Furmanski, P. (1994) Cancer Res 54, 2310-2312; Kalland, T. (1986) Cancer Res 46, 3018-3022; Schultz, R. M., Silberman, S., Persky, B., Bajkowski, A. S., and Carmichael, D. F. (1988) Cancer Res 48, 5539-5545]. Mice were divided into 7 mice per group for treatment. B16-F10 cells were grown and maintained as monolayers in RPMI 1640 medium supplemented with 10% FBS and 1% penicillin/streptomycin in 5% CO2 at 37° C. The cells were then subjected to FBS starvation in RPMI 1640 medium without FBS for 24 h. Cells were harvested through trypsinization and adjusted to a density of […] with serum free medium. […] The weight of mice was recorded daily. […] Tumor nodules on lung surface were counted under a magnifier.
FIG. 5 presents the representative photographs of the lungs dissected from mice with different treatments. […] The effect was further confirmed by the metastatic tumors counted under a magnifier (Table 3). […]

We go through one molecule from US20160129070A1, “Glutathione Disulfide Compositions and Related Methods for the Treatment of Cancer” (South Dakota Board of Regents, priority 2014, published 2016).

On to `CN(C)/N=N/c1[nH]cnc1C(N)=O` [Dacarbazine], for which the “Number of metastatic tumors in murine lungs, Average” value amounted to 0.8 ± 2.0.
